# Data as given in patent US9309240B2, “Pyrazolopyridine compounds, compositions and methods of use” (F. HOFFMANN-LA ROCHE AG, priority 2010, dated 2016).
# Counter-ions that a name gives are not always drawn.
# Biological target: T1, TYK2 kinase domain (Homo sapiens, UniProt P29597)
# T1 construct: The activity of the isolated JAK1, JAK2 or TYK2 kinase domain was measured
# T1 sequence (P29597 897-1176 limits assumed): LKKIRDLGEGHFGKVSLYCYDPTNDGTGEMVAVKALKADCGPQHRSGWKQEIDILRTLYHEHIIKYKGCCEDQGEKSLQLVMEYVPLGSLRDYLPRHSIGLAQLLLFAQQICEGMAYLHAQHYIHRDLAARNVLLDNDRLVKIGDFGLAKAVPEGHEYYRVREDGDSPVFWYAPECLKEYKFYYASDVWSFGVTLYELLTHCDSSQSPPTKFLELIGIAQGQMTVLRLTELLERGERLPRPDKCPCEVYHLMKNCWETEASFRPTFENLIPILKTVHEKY
# Experiment: JAK1, JAK2 and TYK2 Inhibition Assay Protocol (Example A): TYK2 kinase domain, Caliper LabChip peptide phosphorylation
# Type: biochemical
# Conditions: isolated TYK2 kinase domain, 1 nM enzyme, 25 uM ATP, Morrison tight binding model
# Procedure: The activity of the isolated JAK1, JAK2 or TYK2 kinase domain was measured by monitoring phosphorylation of a peptide derived from JAK3 (Val-Ala-Leu-Val-Asp-Gly-Tyr-Phe-Arg-Leu-Thr-Thr) fluorescently labeled on the N-terminus with 5-carboxyfluorescein using the Caliper LabChip technology (Caliper Life Sciences, Hopkinton, Mass.). To determine the inhibition constants (Ki) of Examples 1-165, compounds were diluted serially in DMSO and added to 50 μL kinase reactions containing 1.5 nM JAK1, 0.2 nM purified JAK2 or 1 nM purified TYK2 enzyme, 100 mM Hepes pH7.2, 0.015% Brij-35, 1.5 uM peptide substrate, 25 uM ATP, 10 mM MgCl2, 4 mM DTT at a final DMSO concentration of 2%. Reactions were incubated at 22° C. in 384-well polypropylene microtiter plates for 30 minutes and then stopped by addition of 25 μL of an EDTA containing solution (100 mM Hepes pH 7.2, 0.015% Brij-35, 150 mM EDTA), resulting in a final EDTA concentration of 50 mM. After termination of the kinase reaction, the proportion of phosphorylated product was determined as a fraction of total peptide substrate using the Caliper LabChip 3000 according to the manufacturer's specifications. Ki values were then determined using the Morrison tight binding model. Morrison, J. F., Biochim. Biophys. Acta. 185:269-296 (1969); William, J. W. and Morrison, J. F., Meth. Enzymol., 63:437-467 (1979).
row,SMILES,Ki [nM]
1,"N#Cc1cnc(Nc2cc(N)ncn2)c2cn(-c3c(Cl)cccc3Cl)nc12 [Example 40, 4-(6-Aminopyrimidin-4-ylamino)-2-(2,6-dichlorophenyl)-2H-pyrazolo[4,3-c]pyridine-7-carbonitrile]",1.1
2,"Cc1cc(Nc2nccc3nn(-c4c(Cl)cccc4Cl)cc23)nc(C)n1 [Example 2, [2-(2,6-Dichlorophenyl)-2H-pyrazolo[4,3-c]pyridine-4-yl]-(2,6-dimethylpyrimidin-4-yl)amine]",2
3,"OCCN1CCN(c2cc(Nc3nccc4nn(-c5c(Cl)cccc5Cl)cc34)ncn2)CC1 [Example 49, 2-(4-(6-((2-(2,6-dichlorophenyl)-2H-pyrazolo[4,3-c]pyridin-4-yl)amino)-pyrimidin-4-yl)piperazin-1-yl)ethan-1-ol]",1.9
4,"N#Cc1cccc(Cl)c1-n1cc2c(Nc3cc(N)ncn3)ncc(Cl)c2n1 [Example 151, 2-(4-(6-aminopyrimidin-4-ylamino)-7-chloro-2H-pyrazolo[4,3-c]pyridin-2-yl)-3-chlorobenzonitrile]",0.1
5,"O=C(Nc1nccc2nn(-c3c(F)cccc3Cl)cc12)C1CC1 [Example 15, N-(2-(2-chloro-6-fluorophenyl)-2H-pyrazolo[4,3-c]pyridin-4-yl)cyclopropanecarboxamide]",1.6
6,"N#Cc1cc(Cl)c(-n2cc3c(Nc4cc(N)ncn4)ncc(F)c3n2)c(Cl)c1 [Example 34, 4-[4-(6-Amino-pyrimidin-4-ylamino)-7-fluoro-pyrazolo[4,3-c]pyridin-2-yl]-3,5-dichlorobenzonitrile.HCl]",0.4
7,"CNC(=O)Nc1nccc2nn(-c3c(Cl)cccc3Cl)cc12 [Example 7, 1-[2-(2,6-Dichlorophenyl)-2H-pyrazolo[4,3-c]pyridine-4-yl]-3-methylurea]",3.3
8,"CC(O)c1cc(Nc2ncc(F)c3nn(-c4c(Cl)cccc4C#N)cc23)ncn1 (stereo not shown) [Example 96, 3-Chloro-2-{7-fluoro-4-[6-(1-hydroxyethyl)-pyrimidin-4-ylamino]-pyrazolo[4,3-c]pyridin-2-yl}-benzonitrile]",0.8
9,"Nc1cc(Nc2nccc3nn(-c4c(F)ccc(F)c4Cl)cc23)ncn1 [Example 81, N4-(2-(2-chloro-3,6-difluorophenyl)-2H-pyrazolo[4,3-c]pyridin-4-yl)pyrimidine-4,6-diamine]",2.2
10,"Cc1cc(Nc2cc(Cl)c(-n3cc4c(Nc5cc(C)ncn5)nccc4n3)c(C#N)c2)ncn1 [Example 158, 3-chloro-5-(6-methylpyrimidin-4-ylamino)-2-(4-(6-methylpyrimidin-4-ylamino)-2H-pyrazolo[4,3-c]pyridin-2-yl)benzonitrile]",1.8
11,"COC(=O)Nc1nccc2nn(-c3c(Cl)cccc3Cl)cc12 [Example 6, [2-(2,6-Dichlorophenyl)-2H-pyrazolo[4,3-c]pyridine-4-yl]carbamic acid methyl ester]",5.2
12,"O=C(Nc1nccc2nn(-c3c(Cl)cccc3Cl)cc12)C1CC1 [Example 1, N-(2-(2,6-Dichlorophenyl)-2H-pyrazolo[4,3-c]pyridin-4-yl)cyclopropanecarboxamide]",1.3
13,"N#Cc1cc(Cl)c(-n2cc3c(NC(=O)C4CC4)nccc3n2)c(Cl)c1 [Example 69, N-(2-(2,6-dichloro-4-cyanophenyl)-2H-pyrazolo[4,3-c]pyridin-4-yl)cyclopropane-carboxamide]",2
14,"CS(=O)(=O)c1cc(Cl)c(-n2cc3c(NC(=O)C4CC4)nccc3n2)c(Cl)c1 [Example 67, N-(2-(2,6-dichloro-4-methane-sulphonyl-phenyl)-2H-pyrazolo[4,3-c]pyridine-4-yl)cyclopropane-carboxamide]",14.9
15,"N#Cc1cc(N)cc(Cl)c1-n1cc2c(Nc3cc(N)ncn3)ncc(F)c2n1 [Example 101, 5-Amino-2-[4-(6-aminopyrimidin-4-ylamino)-7-fluoropyrazolo[4,3-c]pyridin-2-yl]-3-chlorobenzonitrile formate salt]",105
16,"Cc1cc(Nc2nccc3nn(-c4c(Cl)cccc4Cl)cc23)ncc1C#N [Example 53, 6-[2-(2,6-Dichlorophenyl)-2H-pyrazolo[4,3-c]pyridin-4-ylamino]-4-methyl-nicotinonitrile]",1
17,"Cc1cc(Nc2ncc(Cl)c3nn(-c4c(Cl)cc(C#N)cc4Cl)cc23)ncn1 [Example 30, 3,5-Dichloro-4-[7-chloro-4-(6-methylpyrimidin-4-ylamino)pyrazolo[4,3-c]pyridin-2-yl]benzonitrile]",5.6
18,"OCc1cc(Nc2ncc(Br)c3nn(-c4c(Cl)cccc4Cl)cc23)ncn1 [Example 37, {6-[7-Bromo-2-(2,6-dichloro-phenyl)-2H-pyrazolo[4,3-c]pyridin-4-ylamino]-pyrimidin-4-yl}-methanol]",0.4
19,"N#Cc1ccc(Nc2nccc3nn(-c4c(Cl)cccc4Cl)cc23)nc1 [Example 3, 6-[2-(2,6-Dichlorophenyl)-2H-pyrazolo[4,3-c]pyridin-4-ylamino]nicotinonitrile]",3
